Results on 4 compounds are retold here after patent US10927136B2, “Phosphorus prodrugs of pyrazolo-substituted pyrimidine sGC stimulators” (Cyclerion Therapeutics, Inc., priority 2016, dated 2021).

SMILES strings stand for the structures.

Data set [1] in a line: Ex-vivo rat intestinal fluid stability assay. It counts as in vitro ADME. Set-up: half-life: dose or concentration left out as unconfirmed. The note with it: 37° C.; for prodrug converted into its parent drug: after 30 minutes of incubation; for half-life: rat intestinal (jejunum) fluid, read-out: disappearance half-life (T1/2). As to the method:
Phosphate prodrugs disclosed herein were designed to be cleaved by alkaline phosphatase(s) that are present on the apical brush-border membranes of the intestine, after which the more hydrophobic parent compound is readily absorbed. Phosphatases are also present in the liver and in the systemic circulation. In order to test the speed of cleavage of the prodrug into the parent drug, […] solutions of each of the test compounds were incubated in rat intestinal (jejunum) fluid. Samples were taken at times=0, 5, 15, 30 and 60 min and the mixtures were quenched by the addition of acetonitrile containing an internal standard. Samples were analyzed by full scan LC/MS. The following protocol was used:
10 mM DMSO stock solutions were thawed or prepared for the positive control (Enalapril) and each test article. Internal standard (IS) crash solution in acetonitrile (ACN) with 20 ng/ml of Compound Z, depicted below, was prepared. Stock (250 uM) was prepared from 10 mM in 50/50 acetonitrile/H2O. Rat intestinal fluid vials were thawed in a water bath at rt.
In a 96-well, 1 ml plate, 48 uL of rat intestinal fluid was aliquoted in triplicate for each time point. The t0 (“0 min”) time point was prepared separately by adding 450 ul of IS crash solution to 48 ul of intestinal fluid, then adding 2 uL of test compound. 2 ul of the 250 uM substock was added to initiate the reaction at 5 min, 15 min, 30 min, and 60 min. The plate prepared in the above steps was covered with a plastic or foil seal and was set in the 37° C. incubator, lightly shaking. For each time point, 450 ul of IS crash solution was added to quench the reaction. The plates were centrifuged at 4000 RPM for 10 minutes at 4° C. 50 ul of supernatant was transferred into 50 ul of H2O and analyzed using LC/MS.
The disappearance of the prodrug and the conversion to the parent were monitored over time.

For data set [2] the following is noted: cited from earlier work.
The conditions of data set [3]: known; cited from earlier work.
For data set [4] the following is noted: human microsomes, after 15 min; cited from earlier work.

In the case of `O=P(O)(O)OC1(CNc2nc(-c3cc(-c4ccon4)n(Cc4ccccc4F)n3)ncc2F)CCOCC1` [Compound I-3], the “prodrug converted into its parent drug” value in data set [1] is reported as “about 25%”. In addition, in data set [1] (after 60 minutes of incubation), the prodrug remaining uncleaved entry is on record as “less than 10%”.

Turning to `O=P(O)(O)OC(Cn1cncn1)(Cn1cncn1)c1ccc(F)cc1F` [fosfluconazole], the “human half-life (from published data)” value in data set [2] was 90 to 150 min. Moreover, in data set [3], the “cleavage to the parent drug in vivo” value is given as “known to cleave slowly to the parent drug in vivo”. In addition, the prodrug remaining uncleaved result in data set [1] (after 60 minutes of incubation) is listed as “About 80%”. For the same compound, the half-life in data set [1] came out at 211 min.

With `O=C1NC(c2ccccc2)(c2ccccc2)C(=O)N1COP(=O)(O)O` [fosphenytoin], in data set [2], the “human half-life (from published data)” value is 8 to 15 min. The “cleavage to the parent drug in vivo” value in data set [3] is given as “known to cleave to the parent drug quickly in vivo”. For the same compound, in data set [1], the “prodrug converted into its parent drug” value was “More than 80%” and the half-life worked out at 5 min. Also, the prodrug remaining uncleaved result in data set [1] (after 60 minutes of incubation) is on record as “no prodrug could be detected”.

For the compound `COc1cc(Nc2ncc(F)c(Nc3ccc4c(n3)N(COP(=O)(O)O)C(=O)C(C)(C)O4)n2)cc(OC)c1OC` [fostamatinib], in data set [4], the hydrolysis of prodrug result is recorded as “fully hydrolized”. Moreover, the “quantifiable fostamatinib in subjects” value in data set [2] (human clinical trials, oral dosing, after the 2-hour time point) was “no quantifiable fostamatinib was observed”. Moreover, the “cleavage to the parent drug in vivo” value in data set [3] is given as “known to cleave to the parent drug quickly in vivo”. In data set [1], the “prodrug converted into its parent drug” value is on record as “About 50%” and the half-life was found to be 34 min. In addition, in data set [1] (after 60 minutes of incubation), the “prodrug converted into its parent drug / cleaved” value is “About 80%”.
